Measurements taken from patent US7223733B2, “Modulation of TRIP-Br function and method of treating proliferative disorders” (National University of Singapore, priority 2004, dated 2007).
[invdT] = inverted (3'-3') thymidine

Experiments:
hTRIP-Br2 mRNA = experiment: Semi-quantitative RT-PCR of intact hTRIP-Br2 transcripts in WI-38 cells; format: cell-based, human; conditions: WI-38, 0.1 μM, 16 h post-stimulation with 10% FBS
Experimental: (§1) DNA enzyme transfection. WI-38 cells were rendered quiescent by cultivation in serum-free medium for 72 h before being transfected with DNA enzyme (0.1 μM) using Superfect as reported previously (Santiago, F. S., et al. Nat Med 5, 1264-1269 (1999)) in accordance to manufacturer's recommendations (Qiagen).
(§2) Semi-quantitative RT-PCR. Following various treatments, WI-38 cells in 6-well culture dish were subjected to total RNA extraction using the TRIZOL® Reagent (Life Technologies). Total RNA (4 μg) was reversed transcribed using oligo-dT and M-MLV reverse transcriptase in a total reaction volume of 20 μl. Polymerase Chain Reactions (PCR) were carried out on 3 μl cDNA sample in the presence of […] deoxyribonucleotide triphosphates (dNTPs) and 40 μM of specific primer pairs in a total reaction volume of 50 μl. […] Post-PCR samples were analyzed by agarose gel electrophoresis.
(§3) FIG. 11: (A) hTRIP-Br1 and hTRIP-Br2 expression is serum-inducible. […] At 24 h post-serum re-stimulation, semi-quantitative RT-PCR analysis was performed on total RNA to assess hTRIP-Br1 and hTRIP-Br2 expression. β-actin was included as an internal control. […] Semi-quantitative RT-PCR analysis was performed on total RNA to assess hTRIP-Br1 and hTRIP-Br2 expression. β-actin was included as an internal control. […]

hTRIP-Br1 mRNA = experiment: Semi-quantitative RT-PCR of intact hTRIP-Br1 transcripts in WI-38 cells; format: cell-based, human; conditions: WI-38, 0.1 μM, 16 h post-stimulation with 10% FBS
Experimental: as §1, §2, §3

Substance | serum-inducible steady-state hTRIP-Br2 mRNA level (hTRIP-Br2 mRNA) | serum-inducible steady-state hTRIP-Br1 mRNA level (hTRIP-Br1 mRNA)
5′-T TACCCAACAGGCTAGCTACAACGAATATCACA-3′ (DNA TTACCCAACAGGCTAGCTACAACGAATATCACA; DNA, 3' [invdT], backbone not given here) [E-Br2] | efficiently down-regulated | –
5′-T TGCTCAGCAGGCTAGCTACAACGACTTGCTCA-3′ (DNA TTGCTCAGCAGGCTAGCTACAACGACTTGCTCA; DNA, 3' [invdT], backbone not given here) [E-Br1] | – | efficiently down-regulated
